± gives the standard deviation of the averaged measurements.
Legend:
Test in all cases: normalised growth rate inhibition (GR value) relative to DMSO control (GR (1 = untreated growth, 0 = cytostasis, <0 = cytotoxic)); higher = less growth inhibition
Conditions in all cases: 72 h
[1] = test system: MDAMB231
Experimental: (§1)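 Breast cancer cell lines (BT-20, Hs 578T, MCF 10A, MCF7, MDA-MB-231, SK-BR-3) were plated in 384-well plates and treated 24 h later with drugs at six concentrations (0.04-10 µM). Viable cells were counted by Hoechst/dead-cell-stain imaging at 0 and 72 h. Counts were normalised to DMSO controls on the same plate to give the relative cell count and the growth-rate inhibition (GR) value; technical plate triplicates were averaged for each biological replicate.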

[2] = test system: MCF10A
Experimental: as §1

[3] = test system: SKBR3
Experimental: as §1

[4] = test system: HS578T
Experimental: as §1

[5] = test system: MCF7
Experimental: as §1

[6] = test system: BT20
Experimental: as §1

SMILES | normalised growth rate inhibition ([1]; 0.04 µM) | normalised growth rate inhibition ([1]; 0.12 µM) | normalised growth rate inhibition ([1]; 0.37 µM) | normalised growth rate inhibition ([1]; 1.11 µM) | normalised growth rate inhibition ([1]; 3.33 µM) | normalised growth rate inhibition ([1]; 10 µM) | normalised growth rate inhibition ([2]; 0.04 µM) | normalised growth rate inhibition ([2]; 0.12 µM) | normalised growth rate inhibition ([2]; 0.37 µM) | normalised growth rate inhibition ([2]; 1.11 µM) | normalised growth rate inhibition ([2]; 3.33 µM) | normalised growth rate inhibition ([2]; 10 µM) | normalised growth rate inhibition ([3]; 0.04 µM) | normalised growth rate inhibition ([3]; 0.12 µM) | normalised growth rate inhibition ([3]; 0.37 µM) | normalised growth rate inhibition ([3]; 1.11 µM) | normalised growth rate inhibition ([3]; 3.33 µM) | normalised growth rate inhibition ([3]; 10 µM) | normalised growth rate inhibition ([4]; 0.04 µM) | normalised growth rate inhibition ([4]; 0.12 µM) | normalised growth rate inhibition ([4]; 0.37 µM) | normalised growth rate inhibition ([4]; 1.11 µM) | normalised growth rate inhibition ([4]; 3.33 µM) | normalised growth rate inhibition ([4]; 10 µM) | normalised growth rate inhibition ([5]; 0.04 µM) | normalised growth rate inhibition ([5]; 0.12 µM) | normalised growth rate inhibition ([5]; 0.37 µM) | normalised growth rate inhibition ([5]; 1.11 µM) | normalised growth rate inhibition ([5]; 3.33 µM) | normalised growth rate inhibition ([5]; 10 µM) | normalised growth rate inhibition ([6]; 0.04 µM) | normalised growth rate inhibition ([6]; 0.12 µM) | normalised growth rate inhibition ([6]; 0.37 µM) | normalised growth rate inhibition ([6]; 1.11 µM) | normalised growth rate inhibition ([6]; 3.33 µM) | normalised growth rate inhibition ([6]; 10 µM)
CC(C)CC(=O)Nc1n[nH]c2c1CN(C(=O)C1CCN(C)CC1)C2(C)C | 0.304 ± 0.16 | 0.211 ± 0.072 | 0.0329 ± 0.056 | -0.0471 ± 0.091 | -0.13 ± 0.13 | -0.262 ± 0.2 | 0.322 ± 0.09 | 0.228 ± 0.053 | 0.116 ± 0.063 | 0.0382 ± 0.073 | -0.0512 ± 0.066 | -0.187 ± 0.19 | 0.145 ± 0.15 | 0.0952 ± 0.085 | 0.0136 ± 0.079 | -0.0334 ± 0.073 | -0.0738 ± 0.074 | -0.305 ± 0.21 | 0.497 ± 0.057 | 0.427 ± 0.073 | 0.227 ± 0.11 | 0.0474 ± 0.12 | -0.035 ± 0.096 | -0.157 ± 0.11 | 0.207 ± 0.15 | 0.143 ± 0.1 | 0.0348 ± 0.063 | -0.0125 ± 0.053 | -0.102 ± 0.12 | -0.328 ± 0.029 | 0.52 ± 0.085 | 0.436 ± 0.047 | 0.276 ± 0.097 | 0.109 ± 0.12 | -0.0127 ± 0.079 | -0.219 ± 0.12
NC(=O)Nc1cc(-c2cccc(F)c2)sc1C(=O)N[C@H]1CCCNC1 [AZD-7762] | 0.7 ± 0.19 | 0.387 ± 0.1 | 0.196 ± 0.21 | -0.0971 ± 0.13 | -0.246 ± 0.14 | -0.29 ± 0.16 | 0.878 ± 0.077 | 0.749 ± 0.11 | 0.647 ± 0.1 | 0.43 ± 0.097 | 0.188 ± 0.052 | -0.177 ± 0.082 | 0.0117 ± 0.2 | -0.11 ± 0.19 | -0.168 ± 0.17 | -0.273 ± 0.16 | -0.301 ± 0.14 | -0.341 ± 0.13 | 0.41 ± 0.2 | 0.0861 ± 0.15 | -0.0107 ± 0.13 | -0.108 ± 0.14 | -0.187 ± 0.13 | -0.289 ± 0.13 | 0.27 ± 0.063 | 0.176 ± 0.061 | 0.0985 ± 0.048 | -0.000407 ± 0.031 | -0.103 ± 0.015 | -0.276 ± 0.042 | 1.05 ± 0.054 | 0.874 ± 0.14 | 0.634 ± 0.15 | 0.262 ± 0.15 | -0.0616 ± 0.12 | -0.418 ± 0.099
Cn1cc(C2=C(c3cn(C4CCN(Cc5ccccn5)CC4)c4ccccc34)C(=O)NC2=O)c2ccccc21 [enzastaurin] | 1 ± 0.023 | 1.01 ± 0.035 | 1 ± 0.048 | 1 ± 0.071 | 1.01 ± 0.036 | 1.03 ± 0.079 | 1.006 ± 0.0093 | 1 ± 0.014 | 1 ± 0.018 | 1.02 ± 0.03 | 1.01 ± 0.061 | 0.985 ± 0.11 | 1.1 ± 0.097 | 1.07 ± 0.085 | 1.1 ± 0.033 | 1.06 ± 0.033 | 1.07 ± 0.056 | 0.958 ± 0.18 | 1.02 ± 0.027 | 0.998 ± 0.018 | 1 ± 0.028 | 1.02 ± 0.027 | 1.01 ± 0.019 | 0.935 ± 0.035 | 0.978 ± 0.052 | 0.999 ± 0.035 | 1.01 ± 0.035 | 0.946 ± 0.039 | 0.936 ± 0.084 | 0.693 ± 0.31 | 1.01 ± 0.1 | 1.03 ± 0.057 | 1.07 ± 0.043 | 1.07 ± 0.079 | 1.13 ± 0.057 | 1.19 ± 0.062
Cc1[nH]c(/C=C2\C(=O)Nc3ccc(S(=O)(=O)N(C)c4cccc(Cl)c4)cc32)c(C)c1C(=O)N1CCN(C)CC1 | 1.07 ± 0.065 | 1.01 ± 0.04 | 1 ± 0.057 | 0.954 ± 0.058 | 0.847 ± 0.076 | 0.0987 ± 0.12 | 1 ± 0.019 | 0.976 ± 0.02 | 0.941 ± 0.02 | 0.867 ± 0.01 | 0.742 ± 0.022 | 0.474 ± 0.032 | 1.14 ± 0.075 | 1.08 ± 0.085 | 1.11 ± 0.057 | 0.996 ± 0.058 | 0.923 ± 0.032 | 0.00625 ± 0.024 | 1.02 ± 0.014 | 0.992 ± 0.013 | 0.9492 ± 0.0032 | 0.883 ± 0.025 | 0.818 ± 0.03 | 0.159 ± 0.083 | 1.1 ± 0.046 | 1.05 ± 0.075 | 1.01 ± 0.073 | 0.858 ± 0.037 | 0.712 ± 0.045 | 0.0989 ± 0.046 | 1.06 ± 0.037 | 1.04 ± 0.017 | 1 ± 0.029 | 0.922 ± 0.015 | 0.819 ± 0.011 | 0.0654 ± 0.082

Reference: the supplement of paper PMC5662764
